Measured values published in patent US20230117034A1, “PYRAZOLOTRIAZINES” (Bayer Aktiengesellschaft, priority 2019, published 2023).

Key:
CDK12/CycK = CDK12/CycK (Homo sapiens, UniProt Q9NYV4); assay: CDK12/CycK high ATP kinase assay (TR-FRET, 2 mM ATP); format: biochemical; conditions: 2 mM ATP (high ATP); median; read-out: CDK12/CyclinK, 2 mM ATP (high ATP), IC50-[mol/l] (median)
Outline: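 His-tagged human CDK12/CycK (~0.75 nM) pre-incubated 15 min with compound, then 60 min at 22 °C with 2 mM ATP and 1 µM biotinylated peptide (HEPES pH 7.5, 20 mM MgCl2). EDTA stop; phospho-Ser62 antibody/Eu anti-rabbit and streptavidin-XL665 TR-FRET, 665/620 nm ratio normalised to give IC50.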

CDK2/CycE = biological target: T1, CDK2/CycE (Homo sapiens, UniProt P24941); assay: CDK2/CycE kinase assay (TR-FRET, 2 mM ATP); format: biochemical; conditions: 2 mM ATP (high ATP); median; read-out: CDK2/CyclinE, 2 mM ATP (high ATP), IC50 (median)
T1 construct: purchased ProQinase GmbH (Freiburg, Germany); host or cells: insect cells (Sf9)
Outline: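 GST-tagged human CDK2 and CycE from Sf9 cells, about 10 ng/ml, pre-incubated 15 min at 22 °C with compound in Tris/HCl pH 8.0 buffer. Reaction with 2 mM ATP and 0.75 µM biotinylated peptide for 25 min at 22 °C. Phospho-RB antibody TR-FRET (665/620 nm ratio) read after 1 h; data normalised to no-inhibitor and no-enzyme controls.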

Chain of CDK12/CycK (Q9NYV4 with tags, fused parts or gaps): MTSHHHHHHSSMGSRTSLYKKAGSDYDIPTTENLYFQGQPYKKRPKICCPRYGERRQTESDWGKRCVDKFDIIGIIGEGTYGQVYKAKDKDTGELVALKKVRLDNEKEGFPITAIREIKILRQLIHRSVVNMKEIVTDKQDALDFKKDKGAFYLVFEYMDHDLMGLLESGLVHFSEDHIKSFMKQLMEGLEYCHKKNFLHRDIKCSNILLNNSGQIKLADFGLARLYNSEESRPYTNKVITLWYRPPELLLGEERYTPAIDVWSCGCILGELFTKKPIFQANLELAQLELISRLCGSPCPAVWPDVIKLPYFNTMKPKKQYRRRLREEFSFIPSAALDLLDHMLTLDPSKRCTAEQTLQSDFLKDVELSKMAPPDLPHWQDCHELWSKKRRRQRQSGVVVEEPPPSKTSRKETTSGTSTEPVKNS
Chain of CDK12/CycK (O75909 1-300 partner limits assumed): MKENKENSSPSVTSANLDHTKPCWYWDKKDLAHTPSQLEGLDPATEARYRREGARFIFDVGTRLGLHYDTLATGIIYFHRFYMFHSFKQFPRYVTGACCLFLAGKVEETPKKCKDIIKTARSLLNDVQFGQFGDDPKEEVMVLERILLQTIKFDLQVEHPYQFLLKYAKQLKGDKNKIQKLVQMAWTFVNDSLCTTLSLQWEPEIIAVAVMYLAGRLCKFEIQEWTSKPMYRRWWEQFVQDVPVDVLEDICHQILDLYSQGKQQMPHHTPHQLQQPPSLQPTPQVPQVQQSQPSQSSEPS

SMILES	IC50 (CDK12/CycK) [µM]	IC50 (CDK2/CycE) [µM]
CC(C)c1cnn2c(NCc3nc4ccccc4[nH]3)nc(N3CCOCC3)nc12 [Example 1, N-[(1H-benzimidazol-2-yl)methyl]-2-(morpholin-4-yl)-8-(propan-2-yl)pyrazolo[1,5-a][1,3,5]triazin-4-amine]	5.97	5.27
COC1CCN(c2nc(NCc3nc4ccccc4[nH]3)n3ncc(Br)c3n2)CC1 [Example 62, N-[(1H-benzimidazol-2-yl)methyl]-8-bromo-2-(4-methoxypiperidin-1-yl)pyrazolo[1,5-a][1,3,5]triazin-4-amine]	5.69	6.45
Fc1cccc(-c2cnn3c(NCc4nc5ccccc5[nH]4)nc(N4CCOCC4)nc23)c1 [Example 91, N-[(1H-benzimidazol-2-yl)methyl]-8-(3-fluorophenyl)-2-(morpholin-4-yl)pyrazolo[1,5-a][1,3,5]triazin-4-amine]	> 57.1	> 20
Fc1ccc2[nH]c(CNc3nc(N4CCOCC4)nc4c(-c5cnn(C(F)F)c5)cnn34)nc2c1F [Example 422, N-[(4,5-difluoro-1H-benzimidazol-2-yl)methyl]-8-[1-(difluoromethyl)-1H-pyrazol-4-yl]-2-(morpholin-4-yl)pyrazolo[1,5-a][1,3,5]triazin-4-amine]	–	> 20
FC(F)(F)Oc1cccc(-c2cnc(CNc3nc(N4CCOCC4)nc4c(Br)cnn34)[nH]2)c1 [Example 82, 8-bromo-2-(morpholin-4-yl)-N-({5-[3-(trifluoromethoxy)phenyl]-1H-imidazol-2-yl}methyl)pyrazolo[1,5-a][1,3,5]triazin-4-amine]	0.916	11.6
CCc1cnn2c(NCc3nc4c(F)c(F)ccc4[nH]3)nc(N3CCN(C)CC3)nc12.O=CO [Example 435, formic acid N-[(4,5-difluoro-1H-benzimidazol-2-yl)methyl]-8-ethyl-2-(4-methylpiperazin-1-yl)pyrazolo[1,5-a][1,3,5]triazin-4-amine]	–	5
CC(C)c1cnn2c(NCc3nc4ccccc4[nH]3)nc(N3CCN(C)CC3)nc12 [Example 2, N-[(1H-benzimidazol-2-yl)methyl]-2-(4-methylpiperazin-1-yl)-8-(propan-2-yl)pyrazolo[1,5-a][1,3,5]triazin-4-amine]	> 20	11.1
FC(F)(F)c1cccc(-c2cnc(CNc3nc(N4CCOCC4)nc4c(Br)cnn34)[nH]2)c1 [Example 83, 8-bromo-2-(morpholin-4-yl)-N-({5-[3-(trifluoromethyl)phenyl]-1H-imidazol-2-yl}methyl)pyrazolo[1,5-a][1,3,5]triazin-4-amine]	1.04	7.66
Clc1ccc(-c2cnc(CNc3nc(N4CCOCC4)nc4c(Br)cnn34)[nH]2)cc1 [Example 72, 8-bromo-N-{[5-(4-chlorophenyl)-1H-imidazol-2-yl]methyl}-2-(morpholin-4-yl)pyrazolo[1,5-a][1,3,5]triazin-4-amine]	0.547	4.35
c1ccc2[nH]c(CNc3nc(N4CCOCC4)nc4c(C5CC5)cnn34)nc2c1 [Example 92, N-[(1H-benzimidazol-2-yl)methyl]-8-cyclopropyl-2-(morpholin-4-yl)pyrazolo[1,5-a][1,3,5]triazin-4-amine]	3.25	15.6
CC(C)c1cnn2c(NCc3nc4ccccc4[nH]3)nc(N(C)C)nc12 [Example 3, N^4-[(1H-benzimidazol-2-yl)methyl]-N^2,N^2-dimethyl-8-(propan-2-yl)pyrazolo[1,5-a][1,3,5]triazine-2,4-diamine]	> 20	> 20
FC(F)(F)Oc1ccccc1-c1cnc(CNc2nc(N3CCOCC3)nc3c(Br)cnn23)[nH]1 [Example 89, 8-bromo-2-(morpholin-4-yl)-N-({5-[2-(trifluoromethoxy)phenyl]-1H-imidazol-2-yl}methyl)pyrazolo[1,5-a][1,3,5]triazin-4-amine]	10.7	9.87
COc1cccc(-c2cnc(CNc3nc(N4CCOCC4)nc4c(Br)cnn34)[nH]2)c1 [Example 80, 8-bromo-N-{[5-(3-methoxyphenyl)-1H-imidazol-2-yl]methyl}-2-(morpholin-4-yl)pyrazolo[1,5-a][1,3,5]triazin-4-amine]	1.18	4.04
O[C@@H]1CCN(c2nc(NCc3nc4ccccc4[nH]3)n3ncc(Br)c3n2)C1 [Example 202, (3R)-1-(4-{[(1H-benzimidazol-2-yl)methyl]amino}-8-bromopyrazolo[1,5-a][1,3,5]triazin-2-yl)pyrrolidin-3-ol]	–	10.5
OCC1COCCN1c1nc(NCc2nc3ccccc3[nH]2)n2ncc(Br)c2n1 (stereo not shown) [Example 67, (4-{4-[(1H-benzimidazol-2-ylmethyl)amino]-8-bromopyrazolo[1,5-a][1,3,5]triazin-2-yl}morpholin-3-yl)methanol]	2.74	1.86
COc1ccccc1-c1cnc(CNc2nc(N3CCOCC3)nc3c(Br)cnn23)[nH]1 [Example 87, 8-bromo-N-{[5-(2-methoxyphenyl)-1H-imidazol-2-yl]methyl}-2-(morpholin-4-yl)pyrazolo[1,5-a][1,3,5]triazin-4-amine]	2.59	2.55
CC(C)c1cnn2c(NCc3nc4ccccc4[nH]3)nc(N3CCOC(C)(C)C3)nc12 [Example 12, N-[(1H-benzimidazol-2-yl)methyl]-2-(2,2-dimethylmorpholin-4-yl)-8-(propan-2-yl)pyrazolo[1,5-a][1,3,5]triazin-4-amine]	–	> 16.5
CN1CCN(c2nc(NCc3nc4cc(Cl)c(Cl)cc4[nH]3)n3ncc(C4CC4)c3n2)CC1 [Example 305, 8-cyclopropyl-N-[(5,6-dichloro-1H-benzimidazol-2-yl)methyl]-2-(4-methylpiperazin-1-yl)pyrazolo[1,5-a][1,3,5]triazin-4-amine]	–	> 20
CN1CCN(c2nc(NCc3nc4cc(C(F)(F)F)ccc4[nH]3)n3ncc(C4CC4)c3n2)CC1 [Example 313, 8-cyclopropyl-2-(4-methylpiperazin-1-yl)-N-{[5-(trifluoromethyl)-1H-benzimidazol-2-yl]methyl}pyrazolo[1,5-a][1,3,5]triazin-4-amine]	–	> 20

Other lines, results leading:

IC50 (CDK12/CycK) [µM]	IC50 (CDK2/CycE) [µM]	SMILES
6.33	4.52	Cc1ccccc1-c1cnc(CNc2nc(N3CCOCC3)nc3c(Br)cnn23)[nH]1 [Example 85, 8-bromo-N-{[5-(2-methylphenyl)-1H-imidazol-2-yl]methyl}-2-(morpholin-4-yl)pyrazolo[1,5-a][1,3,5]triazin-4-amine]
0.726	4.28	C[C@@H]1CN(c2nc(NCc3nnc(-c4ccccc4)[nH]3)n3ncc(Br)c3n2)C[C@H](C)O1 [Example 78, 8-bromo-2-[(2R,6S)-2,6-dimethylmorpholin-4-yl]-N-[(5-phenyl-4H-1,2,4-triazol-3-yl)methyl]pyrazolo[1,5-a][1,3,5]triazin-4-amine]
4.42	1.79	Brc1cnn2c(NCc3ncc(-c4ccccn4)[nH]3)nc(N3CCOCC3)nc12 [Example 90, 8-bromo-2-(morpholin-4-yl)-N-{[5-(pyridin-2-yl)-1H-imidazol-2-yl]methyl}pyrazolo[1,5-a][1,3,5]triazin-4-amine]
5.52	4.66	Brc1cnn2c(NCc3nnc(-c4ccccc4)[nH]3)nc(N3CCCC3)nc12 [Example 64, 8-bromo-N-[(5-phenyl-4H-1,2,4-triazol-3-yl)methyl]-2-(pyrrolidin-1-yl)pyrazolo[1,5-a][1,3,5]triazin-4-amine]
> 20	18.2	FC(F)(F)Oc1ccccc1-c1nnc(CNc2nc(N3CCOCC3)nc3c(Br)cnn23)[nH]1 [Example 74, 8-bromo-2-(morpholin-4-yl)-N-({5-[2-(trifluoromethoxy)phenyl]-4H-1,2,4-triazol-3-yl}methyl)pyrazolo[1,5-a][1,3,5]triazin-4-amine]
> 5.71	12.1	Clc1ccccc1-c1nnc(CNc2nc(N3CCOCC3)nc3c(Br)cnn23)[nH]1 [Example 69, 8-bromo-N-{[5-(2-chlorophenyl)-4H-1,2,4-triazol-3-yl]methyl}-2-(morpholin-4-yl)pyrazolo[1,5-a][1,3,5]triazin-4-amine]
10.1	11.1	COC(=O)C1CCN(c2nc(NCc3nnc(-c4ccccc4)[nH]3)n3ncc(Br)c3n2)CC1 [Example 77, methyl 1-(8-bromo-4-{[(5-phenyl-4H-1,2,4-triazol-3-yl)methyl]amino}pyrazolo[1,5-a][1,3,5]triazin-2-yl)piperidine-4-carboxylate]
0.621	1.54	OC[C@@H]1CCCCN1c1nc(NCc2nnc(-c3ccccc3)[nH]2)n2ncc(Br)c2n1 [Example 70, [(2S)-1-(8-bromo-4-{[(5-phenyl-4H-1,2,4-triazol-3-yl)methyl]amino}pyrazolo[1,5-a][1,3,5]triazin-2-yl)piperidin-2-yl]methanol]
> 5.71	> 20	Brc1cnn2c(NCc3nnc(-c4ccccc4)[nH]3)nc(N3CC4(COC4)C3)nc12 [Example 65, 8-bromo-2-(2-oxa-6-azaspiro[3.3]heptan-6-yl)-N-[(5-phenyl-4H-1,2,4-triazol-3-yl)methyl]pyrazolo[1,5-a][1,3,5]triazin-4-amine]
> 5.33	8.34	COC1CCN(c2nc(NCc3nnc(-c4ccccc4)[nH]3)n3ncc(Br)c3n2)CC1 [Example 76, 8-bromo-2-(4-methoxypiperidin-1-yl)-N-[(5-phenyl-4H-1,2,4-triazol-3-yl)methyl]pyrazolo[1,5-a][1,3,5]triazin-4-amine]
